The results in this text go back to ChEMBL document CHEMBL1201862, “PubChem BioAssay data set” (2004).

Assay in all cases: growth of human tumour cells (NCI), 48 h
Experiment [1] has as its system DLD-1.
In experiment [2] the test system is DMS-114.
The subject of experiment [3] is DMS-273.
For experiment [4], the system named is HOP-18.
In experiment [5] the test system is KM-20L2.
Experiment [6] concerns LXFL 529.
The subject of experiment [7] is RXF 631.
Experiment [8] deals with SNB-78.
The test system of experiment [9] is XF498.

Where a name gives a salt, the structure may show the parent alone.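 1) Cells in 96-well plates. 2) Compound, 48 h, 5 concentrations. 3) Linear interpolation between surrounding doses. 4) Unreached endpoint = highest concentration. Abbreviation: GI50, concentration required for 50% inhibition of growth.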 Activity calls are given as the source filed them. Rule as the data show it: active = GI50 up to about 1.1 µM and inactive = higher.

For `COc1nc(N)c(NC(C)=O)c(=O)n1C`, the GI50 in [1], in experiment [2], in experiment [3], in experiment [4], in experiment [5] and in experiment [6] was > 100 µM (inactive) throughout. Further, the GI50 in experiment [7], in [8] and in experiment [9] was > 100 µM (inactive) each time.

With `Cc1ccc(Oc2ccc(C)cc2[N+](=O)[O-])cc1`, the GI50 in experiment [1] is 77.4 µM (inactive); in experiment [2], 28.4 µM (inactive); in [3] it was > 100 µM (inactive); in [4], > 100 µM (inactive); in [5] it was > 100 µM (inactive); in experiment [6], 43.6 µM (inactive). In addition, the results for the GI50 in [7], in experiment [8] and in experiment [9] were > 100 µM (inactive), 31.6 µM (inactive) and 0.275 µM (active), respectively.

For `O=C(NN1C(=O)CSC1c1ccc(Cl)c(Cl)c1)c1ccncc1` (centres undefined), the GI50 is 38.6 µM (inactive) in [1]; 30.6 µM (inactive) in experiment [2]; 64.3 µM (inactive) in experiment [3]; < 0.01 µM (active) in [4]; 74.6 µM (inactive) in experiment [5]; 71.6 µM (inactive) in [6]. In addition, the values for the GI50 in experiment [7], in experiment [8] and in experiment [9] were 94.4 µM (inactive), 64.6 µM (inactive) and 48 µM (inactive), respectively.

Take `O=P(c1ccccc1)(c1ccccc1)C1CC=C(c2ccccc2)C2(CCCC2)C1` (centres undefined): the GI50 in experiment [1] is 48.9 µM (inactive); in [2], 34.4 µM (inactive); in experiment [3], > 100 µM (inactive); in experiment [4], 25.6 µM (inactive); in experiment [5] it was 33.7 µM (inactive); in experiment [6], > 100 µM (inactive). In addition, the GI50 was 40.1 µM (inactive) in [7], > 100 µM (inactive) in experiment [8] and 65.5 µM (inactive) in [9].

Regarding `Cc1ccc(NC(=O)/C(CC(=O)c2c[n+]([O-])c3ccccc3[n+]2[O-])=N\NC(=O)C[n+]2ccccc2)cc1`, the GI50 in experiment [1], in experiment [2], in [3], in [4], in experiment [5] and in experiment [6] was > 100 µM (inactive) throughout. Further, the GI50 in [7], in experiment [8] and in experiment [9] was > 100 µM (inactive) in each case.

As for `O=C1c2c(O)cccc2-c2nn(CCNCCO)c3ccc(NCCNCCO)c1c23` [LOSOXANTRONE HYDROCHLORIDE], the GI50 is 1.24 µM (inactive) in [1]; < 0.0104 µM (active) in experiment [2]; 0.0288 µM (active) in [3]; 0.248 µM (active) in experiment [4]; 1.66 µM (inactive) in experiment [5]; 0.107 µM (active) in experiment [6]. Also, the results for the GI50 in experiment [7], in experiment [8] and in experiment [9] were 0.318 µM (active), 0.634 µM (active) and 0.0135 µM (active), respectively.
